Source: PubChem BioAssay (NCI)
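GI50 is the concentration that inhibits growth by half. At the TGI there is no net growth.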

Experiments:
Experiment in all cases: inhibition of tumour cell growth, NCI panel, 384-well format
[1] = tested on: SNB-75 CNS
[2] = tested on: KM12 colon
[3] = tested on: MOLT-4 leukemia
[4] = tested on: T-47D breast
[5] = tested on: BT-549 breast
[6] = tested on: SK-MEL-5 melanoma
[7] = tested on: SK-MEL-2 melanoma
[8] = tested on: SF-268 CNS
[9] = tested on: ACHN renal
[10] = tested on: SN12C renal
[11] = tested on: SW-620 colon
[12] = tested on: IGROV1 ovarian
[13] = tested on: CAKI-1 renal

With `CS(=O)(=O)CCNCc1ccc(-c2ccc3ncnc(Nc4ccc(OCc5cccc(F)c5)c(Cl)c4)c3c2)o1` the GI50 [1] was 2280 nM, the TGI [1] was 5.28 µM and the GI50 [2] was 2210 nM. The TGI [2] was 3.72 µM, the GI50 [3] was 1490 nM and the TGI [3] was 2820 nM. The GI50 [4] was 605 nM, the TGI [4] was 5.69 µM and the GI50 [5] was 1650 nM. For the same molecule, the TGI [5] was 3.01 µM, the GI50 [6] was 1770 nM and the TGI [6] was 3.16 µM. The GI50 [7] was 1600 nM, the TGI [7] was 2960 nM and the GI50 [8] was 2630 nM. It also gave a TGI [8] of 6.97 µM, a GI50 [9] of 398 nM and a TGI [9] of 8.09 µM. For the same molecule, the GI50 [10] was 2160 nM, the TGI [10] was 7.1 µM and the GI50 [11] was 1990 nM. For the same molecule, the TGI [11] was 3.5 µM, the GI50 [12] was 751 nM and the TGI [12] was 2870 nM. The GI50 [13] was 1460 nM and the TGI [13] was 2970 nM.
